“And” between values parts separate entries of the source, which are not always exact repeats. Equal values may be shown once. Toxic doses and inconclusive results are not listed.
System: nude mice, LOX melanoma ip, survival T/C
Test: NCI In Vivo Anticancer Drug Screen. Data for tumor model Human Amelanotic Melanoma (LOX) (intraperitoneal) in NU/NU BALB/C (nude) mice
Details: endpoint: median survival time, schedule: Q04DX003 (ip), higher = longer survival
Description: The antitumor activity of compounds was measured in mice bearing transplantable tumors. Survival or tumor size were measured and the results are expressed as the measurement made in the treated group (T) divided by the measurement made in the vehicle treated control group (C). The tumor model used in this assay is Human Amelanotic Melanoma (LOX) (intraperitoneal) in NU/NU BALB/C (nude) mice

[1] = dose: 3.75 mg/kg/injection, vehicle: saline with Tween-80
[2] = dose: 7.5 mg/kg/injection, vehicle: saline with Tween-80
[3] = dose: 30.0 mg/kg/injection, vehicle: saline with Tween-80
[4] = dose: 60.0 mg/kg/injection, vehicle: saline with Tween-80
[5] = dose: 25.0 mg/kg/injection, vehicle: Klucel (hydroxypropylcellulose) (HPC)
[6] = dose: 50.0 mg/kg/injection, vehicle: Klucel (hydroxypropylcellulose) (HPC)
[7] = dose: 100.0 mg/kg/injection, vehicle: Klucel (hydroxypropylcellulose) (HPC)
[8] = dose: 25.0 mg/kg/injection, vehicle: saline with Tween-80
[9] = dose: 75.0 mg/kg/injection, vehicle: Klucel (hydroxypropylcellulose) (HPC)
[10] = dose: 150.0 mg/kg/injection, vehicle: Klucel (hydroxypropylcellulose) (HPC)
[11] = dose: 600.0 mg/kg/injection, vehicle: Klucel (hydroxypropylcellulose) (HPC)
[12] = dose: 75.0 mg/kg/injection, vehicle: saline
[13] = dose: 150.0 mg/kg/injection, vehicle: saline
[14] = dose: 600.0 mg/kg/injection, vehicle: saline

CC(O)C1(O)C(O)CC(OC2c3cc4c(c(O)c3[C@@H]3C[C@@]2(C)OC32C=c3cc[nH]c3=N2)C(=O)c2cccc(O)c2C4=O)OC1C (stereo partly specified)
T/C [1]: 108 % of control
T/C [2]: 112 % of control
T/C (dose: 15.0 mg/kg/injection, vehicle: saline with Tween-80): 117 % of control
T/C [3]: 117 % of control
T/C [4]: 91 % of control

O=C1C2=C(Nc3cc([N+](=O)[O-])ccc3N2)OC1c1ccccn1 (stereo unspecified)
T/C [5]: 99 % of control
T/C [6]: 99 % of control
T/C [7]: 110 % of control
T/C (dose: 200.0 mg/kg/injection, vehicle: Klucel (hydroxypropylcellulose) (HPC)): 110 % of control

Cc1cccc(OCC(O)CN2CC2)c1 (stereo unspecified)
T/C [8]: 104 % of control
T/C (dose: 50.0 mg/kg/injection, vehicle: saline with Tween-80): 122 % of control and 99 % of control
T/C (dose: 100.0 mg/kg/injection, vehicle: saline with Tween-80): 121 % of control
T/C (dose: 200.0 mg/kg/injection, vehicle: saline with Tween-80): 122 % of control

CCOC(=O)Nc1cc2c(c(N)n1)N=C(c1ccccc1)CN2
T/C (dose: 0.94 mg/kg/injection, vehicle: saline with Tween-80): 103 % of control
T/C (dose: 1.88 mg/kg/injection, vehicle: saline with Tween-80): 107 % of control
T/C [1]: 119 % of control
T/C [2]: 121 % of control

CO[C@@]12[C@@H]3N[C@@H]3CN1C1=C(C(=O)C(NCC3CCCO3)=C(C)C1=O)[C@@H]2COC(N)=O (stereo partly specified)
T/C (dose: 12.5 mg/kg/injection, vehicle: distilled water + Tween-80): 154 % of control
T/C (dose: 25.0 mg/kg/injection, vehicle: distilled water + Tween-80): 160 % of control
T/C (dose: 50.0 mg/kg/injection, vehicle: distilled water + Tween-80): 215 % of control

[Cl][Hg][Cl]
T/C (dose: 0.63 mg/kg/injection, vehicle: saline): 88 % of control and 96 % of control
T/C (dose: 2.5 mg/kg/injection, vehicle: saline): 95 % of control
T/C (dose: 5.0 mg/kg/injection, vehicle: saline): 91 % of control

CCOC(=O)/C=C/C(=O)N1CCN(C(=O)/C=C/C(=O)OCC)C(C)C1 (stereo unspecified)
T/C [9]: 117 % of control
T/C [10]: 109 % of control
T/C (dose: 300.0 mg/kg/injection, vehicle: Klucel (hydroxypropylcellulose) (HPC)): 108 % of control
T/C [11]: 116 % of control

Cc1cc(Nc2ccc3c(c2)OCO3)c2cc3c(cc2n1)OCO3
T/C [9]: 106 % of control
T/C [11]: 152 % of control and 158 % of control

c1cn[nH]c1
T/C [12]: 109 % of control
T/C [13]: 107 % of control

CCC1(O)C(=O)OCc2c1cc1n(c2=O)Cc2cc3cc(N)ccc3nc2-1 (stereo unspecified)
T/C (dose: 3.75 mg/kg/injection, vehicle: suspension in saline): 324 % of control
T/C (dose: 4.0 mg/kg/injection, vehicle: saline): 189 % of control
T/C (dose: 7.0 mg/kg/injection, vehicle: saline): 355 % of control
T/C (dose: 7.5 mg/kg/injection, vehicle: suspension in saline): 324 % of control
T/C (dose: 12.0 mg/kg/injection, vehicle: saline): 355 % of control
T/C (dose: 15.0 mg/kg/injection, vehicle: suspension in saline): 324 % of control
T/C (dose: 20.0 mg/kg/injection, vehicle: saline): 355 % of control
T/C (dose: 33.0 mg/kg/injection, vehicle: saline): 355 % of control

O=C1CNC(=O)N1CN1CCOCC1
T/C [10]: 177 % of control
T/C [11]: 152 % of control

CCN(CC)CC(=O)O[C@]1(CC)C(=O)OCc2c1cc1n(c2=O)Cc2cc3ccccc3nc2-1
T/C (dose: 18.75 mg/kg/injection, vehicle: water): 239 % of control

Cn1c(=S)sc2nc3ccccc3n2c1=S
T/C [3]: 122 % of control
T/C [4]: 100 % of control
T/C (dose: 120.0 mg/kg/injection, vehicle: saline with Tween-80): 104 % of control
T/C (dose: 240.0 mg/kg/injection, vehicle: saline with Tween-80): 108 % of control
T/C (dose: 480.0 mg/kg/injection, vehicle: saline with Tween-80): 94 % of control

NCc1cc(O)c(O)c(O)c1
T/C [12]: 107 % of control
T/C [13]: 101 % of control
T/C [14]: 102 % of control

O=C1c2ccccc2C(Cl)(c2ccc(Cl)cc2)c2ccc(Cl)cc21 (stereo unspecified)
T/C (dose: 75.0 mg/kg/injection, vehicle: saline with Tween-80): 93 % of control
T/C (dose: 150.0 mg/kg/injection, vehicle: saline with Tween-80): 116 % of control
T/C (dose: 300.0 mg/kg/injection, vehicle: saline with Tween-80): 92 % of control
T/C (dose: 600.0 mg/kg/injection, vehicle: saline with Tween-80): 87 % of control
T/C (dose: 1200.0 mg/kg/injection, vehicle: saline with Tween-80): 93 % of control

COc1cc2c(c3c1c(=O)c1ccccc1n3C)C=CC(C)(C)O2
T/C (dose: 12.5 mg/kg/injection, vehicle: Klucel (hydroxypropylcellulose) (HPC)): 104 % of control
T/C [5]: 107 % of control and 97 % of control
T/C [6]: 107 % of control
T/C [7]: 87 % of control

CO[C@@]12[C@@H]3N[C@@H]3CN1C1=C(C(=O)C(NCCc3ccccn3)=C(C)C1=O)[C@@H]2COC(N)=O
T/C (dose: 1.5 mg/kg/injection, vehicle: saline with Tween-80): 187 % of control
T/C (dose: 3.12 mg/kg/injection, vehicle: saline with Tween-80): 192 % of control
T/C (dose: 3.13 mg/kg/injection, vehicle: saline with Tween-80): 159 % of control
T/C (dose: 6.25 mg/kg/injection, vehicle: saline with Tween-80): 179 % of control and 198 % of control
T/C (dose: 12.5 mg/kg/injection, vehicle: saline with Tween-80): 317 % of control and 340 % of control
T/C [8]: 317 % of control and 340 % of control

Cc1ccc2nc(-c3ccc4nc(-c5ccc(N=Nc6ccc(-c7nc8ccc(-c9nc%10ccc(C)c(S(=O)(=O)O)c%10s9)cc8s7)cc6)cc5)sc4c3)sc2c1S(=O)(=O)O
T/C (dose: 75.0 mg/kg/injection, vehicle: suspension in saline): 92 % of control
T/C (dose: 150.0 mg/kg/injection, vehicle: suspension in saline): 96 % of control

NC(CCC(=O)NC(CS)C(=O)NCC(=O)O)C(=O)O (stereo unspecified)
T/C [12]: 100 % of control
T/C [13]: 100 % of control
T/C (dose: 259.0 mg/kg/injection, vehicle: saline): 108 % of control
T/C (dose: 300.0 mg/kg/injection, vehicle: saline): 107 % of control
T/C (dose: 432.0 mg/kg/injection, vehicle: saline): 108 % of control
T/C [14]: 104 % of control
T/C (dose: 720.0 mg/kg/injection, vehicle: saline): 93 % of control
T/C (dose: 1200.0 mg/kg/injection, vehicle: saline): 95 % of control

COc1c(O)cc2c(c1OC)-c1ccc(SC)c(=O)cc1C(NC(C)=O)CC2 (stereo unspecified)
T/C (dose: 4.0 mg/kg/injection, vehicle: other): 114 % of control
T/C (dose: 5.0 mg/kg/injection, vehicle: Klucel (hydroxypropylcellulose) (HPC)): 151 % of control and 252 % of control
T/C (dose: 5.9 mg/kg/injection, vehicle: other): 111 % of control and 116 % of control
T/C (dose: 8.9 mg/kg/injection, vehicle: other): 117 % of control
T/C (dose: 10.0 mg/kg/injection, vehicle: Klucel (hydroxypropylcellulose) (HPC)): 151 % of control and 305 % of control
T/C (dose: 20.0 mg/kg/injection, vehicle: other): 151 % of control and 156 % of control
